What was measured:
[1] = test system: acetylation level of HDAC substrate (Ac-α-tubulin, Ac-H3); test: Western blot assay for detecting the level of acetylated proteins; format: cell-based; settings: HCT116 cells (FIG. 3) or MV4-11 cells (FIG. 4)
Description: The compounds or the positive control compound were added into each group of cells already adherent to the walls (2×10^6 HCT116 cells or 5×10^6 MV4-11 cells) at a designed concentration. After treatment for 4 hours, trypsin was added for digestion, followed by collecting the cells. After washing with cold PBS twice, the cells were lysed by adding RIPA lysis solution (which was purchased from Beyotime, Art. No.: P0013B, adding 1 mM PMSF before use), allowing for lysis on ice for 30 minutes while vortexing at intervals. The lysate was subjected to ultrasonic treatment on an ice bath (ultrasonicated for 3 seconds and repeated 5 times for each group at an interval of 10 seconds). The supernatant was collected by centrifugation at 12,000 g for 20 min at 4° C. and then mixed the SDS-PAGE loading buffer (purchased from Beyotime, Art. No.: P0015F). The mixture was heated in boiling water for 5 minutes to obtain a protein sample. The protein concentration of the sample was quantified by BCA method. 20 […] total protein from each group was subjected to 15% SDS-PAGE electrophoresis, and 5μl of a pre-stained protein marker (purchased from Thermo, Art. No.: 26616) was loaded to an additional selective lane in order to compare protein molecular weights as well as to detect the transmembrane result. When the bromophenol blue bands ran close to the bottom of the gel, the electrophoresis was terminated and the proteins on the gel were transferred to a PVDF membrane at a pore size of 0.22 μm. After 1.5 hours of transmembrane at a constant current of 200 mA, the PVDF membrane was removed and blocked in 5% skimmed milk for 1 hour. After completion of blocking, the membrane was incubated with the primary antibody (Ac-H3 antibody was purchased from Santa Cruz, Art. No.: sc-56616; Ac-α-tubulin antibody was purchased from Santa Cruz, Art. No.: sc-23950) overnight at 4° C. and then washed with TBS/T for 10 minutes for 3 times. The membrane was incubated with the horseradish peroxidase-coupled secondary antibody at room temperature for 1 hour, and then washed with TBS/T for 10 minutes for 3 times. After washing with TBS for 5 minutes, the membrane was exposed and developed by using a film in the darkroom. The detected GAPDH protein was an internal reference protein (GAPDH antibody was purchased from ZSGB-Bio, Art. No.: TA-08).

A2780s cells = settings: A2780s model, 100 mg/kg intragastrically once every other day, 16 times
[2] = clinical data; cited from earlier work
Breast cancer SKBR3 = test: Cell proliferative activity (MTT / cck-8); format: cell-based; settings: Homo sapiens, SK-BR-3, read-out: Half-Inhibitory Concentration IC50 SKBR3
HDAC10 = HDAC10 (Homo sapiens, UniProt Q969S8); settings: read-out: IC50 HDAC10; Table 4, Class IIb
Description: The HDAC inhibitory activity was determined by fluorescence-coupled acetylated peptide substrate assay (Lys-Ac-AMC). HDAC1 protein was purchased from BPS Bioscience, and the reaction buffer system was a modified tris(hydroxymethyl)aminomethane buffer (pH 7.0). The small molecule compounds of the present invention were prepared by being dissolved in 100% DMSO. HDAC was prepared in a buffer at a certain concentration as an enzyme solution; trypsin and fluorescent group 4-amino-7-coumarin coupled-acetylated peptide (Ac-peptide) substrate were prepared in a buffer at a certain concentration as a substrate solution. The compounds were added into the reaction wells in a 384-well plate at a designed concentration of 10 μM, 1 μM, 0.5 μM, 0.1 μM, 0.05 μM, 0.01 μM, 0.005 μM, 0.001 μM, and 0.00005 μM, respectively, and then 15 μl of the HDAC solution was added into the reaction wells (15 μl of blank buffer to the control well). […] The results were analyzed by GraphPad Prism software and IC50 values were calculated according to the formula: Y=Background Data+(Top Data−Background Data)/(1+10^((Log IC50−X) a curve slope)), where Y: the inhibition rate (%) and X: the concentration of the compound.

Lung cancer A549 = test: Cell proliferative activity (MTT / cck-8); format: cell-based; settings: Homo sapiens, read-out: Half-Inhibitory Concentration IC50 A549
HBL-1 cells = test: Therapeutic effect on the B-cell lymphoma HBL-1 subcutaneous tumor model; format: in vivo, NOD/SCID mice; settings: HBL-1 model, 40 mg/kg intragastrically once every other day, 9 times; vs solvent group
Colon cancer HCT116 = test: Cell proliferative activity (MTT / cck-8); format: cell-based; settings: Homo sapiens, HCT-116, read-out: Half-Inhibitory Concentration IC50 HCT116
Leukemia MV4-11 = test: Cell proliferative activity (MTT / cck-8); format: cell-based; settings: Homo sapiens, read-out: Half-Inhibitory Concentration IC50 MV4-11
Description: (§1) Tumor cell line A375: human melanoma cell; H460: lung adenocarcinoma cell; Hela: human cervical cancer cell; HepG2: human liver cancer cell; and SKOV-3: human ovarian cancer cell, were all purchased from ATCC and cultured to logarithmic phase according to the cultivation protocol recommended by ATCC. The cells in the logarithmic phase were plated onto a 96-well plate at 2000-3000 cells/well; in the case of adherent cells, the cells should be adherent to the wall. […] After that, the cell proliferative activity was determined by MTT assay for the tumor cells representing the solid tumor model and by cck-8 assay for the tumor cells representing the hematologic tumor model.

Multiple myeloma U266 = test: Cell proliferative activity (MTT / cck-8); format: cell-based; settings: Homo sapiens, U-266, read-out: Half-Inhibitory Concentration IC50 U266
Description: as §1

[3] = test system: Human cervical cancer cell Hela; test: Cell proliferative activity (MTT / cck-8); format: cell-based; settings: Cervical cancer, Table 5, read-out: Half-Inhibitory Concentration IC50 Hela
Description: as §1

[4] = test system: Human lung cancer cell H460; test: Cell proliferative activity (MTT / cck-8); format: cell-based; settings: NCI-H460, Lung cancer, Table 5, read-out: Half-Inhibitory Concentration IC50 H460
Description: as §1

B-cell lymphoma Ramos = test: Cell proliferative activity (MTT / cck-8); format: cell-based; settings: Homo sapiens, read-out: Half-Inhibitory Concentration IC50 Ramos
Description: as §1

[5] = test system: Human ovarian cancer cell SKOV-3; test: Cell proliferative activity (MTT / cck-8); format: cell-based; settings: SK-OV-3, Ovarian cancer, Table 5, read-out: Half-Inhibitory Concentration IC50 SKOV-3
Description: as §1

[6] = test system: Multiple myeloma RPMI8226; test: Cell proliferative activity (MTT / cck-8); format: cell-based; settings: Homo sapiens, RPMI-8226, read-out: Half-Inhibitory Concentration IC50 RPMI8226
Description: as §1

Leukemia K562 = test: Cell proliferative activity (MTT / cck-8); format: cell-based; settings: Homo sapiens, read-out: Half-Inhibitory Concentration IC50 K562
Description: as §1

[7] = test system: Human liver cancer cell HepG2; test: Cell proliferative activity (MTT / cck-8); format: cell-based; settings: Liver cancer, Table 5, read-out: Half-Inhibitory Concentration IC50 HepG2
Description: as §1

Ramos cells = test: Therapeutic effect on the B-cell lymphoma Ramos subcutaneous tumor model; format: in vivo, NOD/SCID mice; settings: 40 mg/kg intragastrically once every other day, 6 times, vs solvent group
Colon cancer HT29 = test: Cell proliferative activity (MTT / cck-8); format: cell-based; settings: Homo sapiens, HT-29, read-out: Half-Inhibitory Concentration IC50 HT29
Ovarian cancer A2780s = test: Cell proliferative activity (MTT / cck-8); format: cell-based; settings: Homo sapiens, read-out: Half-Inhibitory Concentration IC50 A2780s

Sequence of HDAC10 (Q969S8 whole entry): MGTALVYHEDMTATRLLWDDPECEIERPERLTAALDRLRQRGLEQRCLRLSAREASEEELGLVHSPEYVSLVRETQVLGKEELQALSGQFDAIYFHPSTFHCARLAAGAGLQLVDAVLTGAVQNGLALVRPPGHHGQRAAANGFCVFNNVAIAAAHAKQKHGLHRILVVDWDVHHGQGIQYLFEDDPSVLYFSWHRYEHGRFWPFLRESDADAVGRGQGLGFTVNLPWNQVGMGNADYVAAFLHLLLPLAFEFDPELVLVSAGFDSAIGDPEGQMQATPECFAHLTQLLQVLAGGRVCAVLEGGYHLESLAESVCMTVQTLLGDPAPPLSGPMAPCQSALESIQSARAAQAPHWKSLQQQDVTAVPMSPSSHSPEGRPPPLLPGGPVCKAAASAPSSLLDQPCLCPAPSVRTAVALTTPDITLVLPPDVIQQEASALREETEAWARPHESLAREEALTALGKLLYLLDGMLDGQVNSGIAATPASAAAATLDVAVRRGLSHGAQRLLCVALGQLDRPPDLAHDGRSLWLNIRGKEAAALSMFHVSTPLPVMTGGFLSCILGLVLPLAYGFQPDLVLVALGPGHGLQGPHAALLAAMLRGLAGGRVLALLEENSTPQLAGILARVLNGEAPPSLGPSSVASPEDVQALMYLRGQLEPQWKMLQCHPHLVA

SMILES: O=C(CCCCCCC(=O)Nc1ccccc1)NO [SAHA, reference compound]
- acetylation of H3 (Ac-H3) [1]: up-regulate acetylation of tubulin and H3
- acetylation of α-tubulin [1]: up-regulate acetylation of tubulin and H3
- death of mice during the experiment (A2780s cells): one mouse died
- toxic side effects [2]: thrombosis and neurotoxicity

SMILES: O=C(CCCCCCNC(=O)c1cnc(N(c2ccccc2)c2ccccc2)nc1)NO [ACY-1215, reference compound]
- IC50 (Breast cancer SKBR3): > 5 µM
- IC50 (HDAC10): 0.194 ± 0.054 µM
- IC50 (Lung cancer A549): > 5 µM
- tumor inhibitory rate (HBL-1 cells): 26.75%
- IC50 (Colon cancer HCT116): > 5 µM
- IC50 (Leukemia MV4-11): > 5 µM
- IC50 (Multiple myeloma U266): > 5 µM
- IC50 [3]: > 5 µM
- IC50 [4]: > 5 µM
- IC50 (B-cell lymphoma Ramos): > 5 µM
- IC50 [5]: > 5 µM
- IC50 [6]: 1.47 ± 0.31 µM
- IC50 (Leukemia K562): > 5 µM
- IC50 [7]: > 5 µM
- tumor inhibitory rate (Ramos cells): no inhibitory effects of tumor growth
- IC50 (Colon cancer HT29): > 5 µM
- IC50 (Ovarian cancer A2780s): > 5 µM
